# Measurements from publication PMC6153434, “Bystander Effects of Hypoxia-Activated Prodrugs: Agent-Based Modeling Using Three Dimensional Cell Cultures” (Frontiers in Pharmacology, 2018).
# How the values were obtained:
# [1] = system: POR-null 'target' HCT116 cell lines (PORko-R, PORko-G); assay: Monolayer clonogenic assay under anoxia (targets); type: cell-based; conditions: monolayer cultures, anoxic exposure 1 h (used for ABM analysis, Figure 9A)
# Description: Log-phase cells were trypsinized and cell pellets, collected by centrifugation, were transferred to a Bactron anaerobic chamber (Sheldon Manufacturing Inc., Cornelius, OR, United States) under 3–5% H2/5% CO2/balance N2, <100 ppm O2, with a palladium/activated carbon catalyst to maintain anoxia. (The term “anoxia” is used throughout to refer to the gas phase, without necessarily implying complete anoxia in monolayers or spheroids as discussed below.) Cells were resuspended and seeded at 10^5 cells/0.15 mL in 96-well plates using medium and plates equilibrated in the chamber for 3 days to ensure complete deoxygenation. After incubation at 37 °C for 2 h for cell attachment, cells were exposed to drugs for 1 h, removed from the chamber, trypsinized, counted with a Coulter counter (model Z2; Beckman Coulter^TM, Indianapolis, IN, United States) and plated in 6-well plates. After 10 days, plates were stained with methylene blue (2 g/L in EtOH:H2O, 1:1 v/v) and colonies with more than 50 cells were counted. Plating efficiency (PE) was calculated as number of colonies/number of cells plated, and surviving fraction (SF) was determined as PE(drug treated)/PE(control).
# [2] = system: high-POR 'activator' HCT116 cells in spheroids; assay: Spheroid clonogenic assay under anoxia (activators in co-culture spheroids); type: cell-based; conditions: spheroids comprising 100% activators, anoxic exposure 1 h (Figure 9B)
# HCT116 and HCT116/POR#6 = conditions: cited from earlier work
# [3] = system: high-POR 'activator' HCT116 cell lines (POR-R, POR-G); type: cell-based; conditions: monolayer cultures
# [4] = system: POR-G activators and PORko-R targets (HCT116)
# [5] = system: POR-null 'target' HCT116 cells in spheroids; type: cell-based
# [6] = published value, PR104H+M model, ref Foehrenbacher et al., 2013
# [7] = published value, ref Foehrenbacher et al., 2013
smiles,measurement,setting,value
CS(=O)(=O)OCCN(CCBr)c1c(C(=O)NCCO)cc([N+](=O)[O-])cc1[N+](=O)[O-] [PR104A],PR-104A concentration giving 90% kill,[1],17 µM
same,concentration giving 90% kill in spheroids,[2],5 µM
same,"Half-life, non-enzymatic loss in culture medium","HCT116 and HCT116/POR#6; 37 °C, published value, PR104H+M model, ref Foehrenbacher et al., 2013",10.2 h
same,"Activator Kmet,0, rate constant for the maximum rate of metabolism in activator cells under anoxia",HCT116 and HCT116/POR#6; [6],1.08 min⁻¹
same,"Kc, intrinsic cytotoxic potency",HCT116 and HCT116/POR#6; [6],0 M⁻¹ s⁻¹
same,"Kin, rate constant for transfer from the extracellular to the intracellular compartment",HCT116 and HCT116/POR#6; [6],3 min⁻¹
same,"Kout, rate constant for transfer from the intracellular to the extracellular compartment",HCT116 and HCT116/POR#6; [6],0.5 min⁻¹
same,"Target Kmet,0, rate constants for the maximum rate of metabolism in target cells under anoxia",HCT116 and HCT116/POR#6; [6],0.054 min⁻¹
same,"Activator F2, proportion of O2-dependent rate of metabolism of the drug in activators",HCT116 and HCT116/POR#6; [7],0.977
same,Hill parameter n,HCT116 and HCT116/POR#6; [7],1
same,"Target F2, proportion of O2-dependent rate of metabolism of the drug in targets",HCT116 and HCT116/POR#6; [7],0.977
same,"KO2, O2 concentration for half-maximum prodrug activation","HCT116 and HCT116/POR#6; published value, ref Hicks et al., 2007",0.126
same,KO2 (sensitivity of PR104A metabolism to oxygen),"HCT116 and HCT116/POR#6; ref Hicks et al., 2007",0.126 µM
same,PR-104A concentration giving 90% kill,"[3]; activators, anoxic exposure 1 h (used for ABM analysis, Figure 9A)",1 µM
same,sensitivity of activator cell lines (clonogenic survival),"[3]; 1 h under anoxia, relative to targets",marked increases in the sensitivity
same,"Activator F2, proportion of O2-dependent rate of metabolism of the drug in activators",[4],0.977
same,"Activator Kmet,0, rate constant for the maximum rate of metabolism in activator cells under anoxia",[4],2 min⁻¹
same,Hill parameter n,[4],2
same,"KO2, O2 concentration for half-maximum prodrug activation",[4],0.126
same,"Kc, intrinsic cytotoxic potency",[4],0 M⁻¹ s⁻¹
same,"Kin, rate constant for transfer from the extracellular to the intracellular compartment",[4],3 min⁻¹
same,"Kout, rate constant for transfer from the intracellular to the extracellular compartment",[4],0.5 min⁻¹
same,"Target F2, proportion of O2-dependent rate of metabolism of the drug in targets",[4],0.977
same,"Target Kmet,0, rate constants for the maximum rate of metabolism in target cells under anoxia",[4],0.03 min⁻¹
same,killing of target cells as proportion of activators increases,"[5]; co-culture spheroids 0, 10, 50 or 100% activators, 1 h under anoxia",markedly increased with increasing proportion of POR-G activator cells
same,bystander effect,"[5]; spheroid co-cultures with ABM simulation, anoxia",clearly demonstrated the existence of a bystander effect
same,concentration giving 90% kill in spheroids,"[5]; spheroids comprising 100% targets, anoxic exposure 1 h (Figure 9B)",20 µM
same,half-life,physchem,10.2 h
